Source: patent US8357673B2, “4-arylazo-3,5-diamino-pyrazole compounds and use thereof” (Univerzita Palackeho V Olomouci, priority 2004, dated 2013)
Where two headings read alike, the source gives them in different places. Each block holds one molecule with its values, some of them ahead of it.

What was measured:
PKBα = PKBα (Homo sapiens, UniProt P31749); assay: Kinase selectivity panel; format: biochemical; settings: in the presence of 10 μM compound
CK2 = CK2 (Homo sapiens, UniProt P68400); assay: Kinase selectivity panel; format: biochemical; settings: in the presence of 10 μM compound
c-Abl = c-Abl (Homo sapiens, UniProt P00519); assay: Kinase selectivity panel; format: biochemical; settings: in the presence of 10 μM compound
Chain of c-Abl (P00519 whole entry): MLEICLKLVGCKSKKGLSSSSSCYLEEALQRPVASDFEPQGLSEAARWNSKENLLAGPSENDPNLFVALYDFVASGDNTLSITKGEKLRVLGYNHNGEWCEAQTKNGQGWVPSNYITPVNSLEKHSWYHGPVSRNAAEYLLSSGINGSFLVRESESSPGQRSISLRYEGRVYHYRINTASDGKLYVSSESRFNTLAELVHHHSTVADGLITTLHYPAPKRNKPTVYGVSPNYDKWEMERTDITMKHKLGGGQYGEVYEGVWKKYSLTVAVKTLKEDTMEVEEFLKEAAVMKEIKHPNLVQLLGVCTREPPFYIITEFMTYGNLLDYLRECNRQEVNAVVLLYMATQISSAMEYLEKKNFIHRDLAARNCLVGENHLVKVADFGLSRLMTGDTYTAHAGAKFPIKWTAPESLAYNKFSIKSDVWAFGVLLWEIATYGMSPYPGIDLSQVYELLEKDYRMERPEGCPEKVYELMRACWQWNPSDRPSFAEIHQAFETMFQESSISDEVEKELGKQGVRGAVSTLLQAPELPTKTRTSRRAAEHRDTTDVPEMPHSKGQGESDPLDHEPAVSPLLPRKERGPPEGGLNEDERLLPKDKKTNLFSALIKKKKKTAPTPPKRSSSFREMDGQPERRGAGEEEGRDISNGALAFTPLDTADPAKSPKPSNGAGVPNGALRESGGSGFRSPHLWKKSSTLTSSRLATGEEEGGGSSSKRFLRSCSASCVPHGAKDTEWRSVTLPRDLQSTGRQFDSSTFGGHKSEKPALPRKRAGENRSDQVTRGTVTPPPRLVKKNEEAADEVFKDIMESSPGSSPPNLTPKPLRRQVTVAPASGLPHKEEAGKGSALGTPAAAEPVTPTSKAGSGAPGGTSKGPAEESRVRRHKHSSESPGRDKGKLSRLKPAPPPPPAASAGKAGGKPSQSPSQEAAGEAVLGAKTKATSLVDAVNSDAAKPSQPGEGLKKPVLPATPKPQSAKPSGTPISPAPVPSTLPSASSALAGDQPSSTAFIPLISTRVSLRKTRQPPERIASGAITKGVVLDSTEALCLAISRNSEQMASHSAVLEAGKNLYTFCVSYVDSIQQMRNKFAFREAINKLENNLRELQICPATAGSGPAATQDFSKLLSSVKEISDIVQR

K562 cell line = assay: Cell cycle analysis by flow cytometry; format: cell-based, human
Description: Taxol (1 μM) treated and control cells were harvested and analyzed simultaneously.
The antiproliferative activity of 4-arylazo-3,5-diaminopyrazoles was subsequently verified by flow cytometry with subconfluent and asynchronously growing K562 cell line. […] The cell cycle block in G2/M was not dominant.
After a longer incubation period (48-72 h) the cells started to die, with the some morphological features typical for apoptosis. […] The induction of apoptosis was therefore verified by the detection of a poly(ADP-ribose)polymerase (PARP) cleavage fragment. PARP is specifically cleaved as a result of activation of upstream proapoptotic caspases into 89 kDa and 27 kDa peptides.

SAPK2α = SAPK2α (Homo sapiens, UniProt Q16539); assay: Kinase selectivity panel; format: biochemical; settings: in the presence of 10 μM compound
Chain of SAPK2α (Q16539 whole entry): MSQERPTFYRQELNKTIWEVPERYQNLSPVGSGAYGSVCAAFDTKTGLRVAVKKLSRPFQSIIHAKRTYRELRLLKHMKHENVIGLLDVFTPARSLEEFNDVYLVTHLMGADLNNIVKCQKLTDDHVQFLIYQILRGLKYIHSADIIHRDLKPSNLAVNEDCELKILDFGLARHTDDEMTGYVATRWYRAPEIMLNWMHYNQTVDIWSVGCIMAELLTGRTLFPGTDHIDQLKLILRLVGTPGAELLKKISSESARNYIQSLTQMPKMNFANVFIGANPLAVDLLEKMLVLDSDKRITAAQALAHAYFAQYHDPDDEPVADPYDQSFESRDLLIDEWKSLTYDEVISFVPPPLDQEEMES

CDK2/cyclin E = target: T1, CDK2/cyclin E (Homo sapiens, UniProt P24941); assay: CDK2/cyclin E kinase inhibition assay (histone H1, [γ-33P]ATP); format: biochemical; settings: for IC50: averaged from triplicates, 15 μM ATP
T1 construct: made in house; host or cells: Sf9 insect cells (baculovirus co-infection)
Description: (§1) CDK1/cyclin B and CDK2/cyclin E kinases were produced in Sf9 insect cells coinfected with appropriate baculoviral constructs. The cells were harvested 70 h post infection, incubated in lysis buffer (50 mM Tris pH 7.4, 150 mM NaCl, 5 mM EDTA, 20 mM NaF, 1% Tween 20, 1 mM DTT, 0.1 mM PMSF, 0.5 μg/ml leupeptine, 1 μg/ml aprotonine) for 30 min on ice and the soluble fraction was recovered by centrifugation at 20.000 g for 10 min. The enzymes were purified on NiNTA column (Qiagen), stored at 4° C. and used within a week. To carry out the enzyme inhibition assays under linear conditions, the final point test system for kinase activity measurement was used. Kinase was added to reaction mixture in such a way as to obtain linear activity with respect to the concentration of enzyme and with respect to time. For determination of kinase inhibition the reaction mixture contained 1 mg/ml histone H1 (type III-S, Sigma) in the presence of 15 μM ATP, 0.05 μCi [γ-^33P]ATP and the tested compound in a final volume of 10 μl; all in reaction buffer (50 mM HEPES, 10 mM MgCl2, 5 mM EGTA, 10 mM 2-glycerolphosphate, 1 mM NaF, 1 mM DTT, pH 7.4). After 20 min incubation, the reactions were stopped by the addition of 5 μl of a 3% H3PO4, aliquots were spotted on P-81 phosphocellulose (Whatman, USA) that was subsequently washed 3× with 5% H3PO4 and finally air dried. The measurements of kinase inhibition employed digital image analyzer BAS-1800 (Fujifilm, Japan). Kinase activity was usually expressed as a percentage of maximum activity. […] For the purpose of kinetic analysis, the activity was expressed as arbitrary units (AU) of digital image analyzer signal.

[1] = tested on: poly(ADP-ribose)polymerase (PARP) cleavage fragment; assay: PARP cleavage by western blot (induction of apoptosis); format: cell-based, human; settings: K562 cells; FIG. 4 legend: MCF7 cells, 72 h
Description: For direct immunoblotting, total cellular protein lysates were prepared by harvesting treated cells in Laemmli sample buffer. […] The probing with anti-PARP monoclonal antibody (clone C-2-10) diluted 1:1000 lasted for 2 h at 22° C. After washing three times in PBS-T, the membrane was incubated with a 1:1000 dilution of peroxidase conjugated rabbit antimouse immunoglobulin. After another three washes in PBS-T, peroxidase activity was detected by ECL chemiluminiscence reagents (Amersham) according to the manufacturer's instructions. After a longer incubation period (48-72 h) the cells started to die, with the some morphological features typical for apoptosis. […] The induction of apoptosis was therefore verified by the detection of a poly(ADP-ribose)polymerase (PARP) cleavage fragment. PARP is specifically cleaved as a result of activation of upstream proapoptotic caspases into 89 kDa and 27 kDa peptides.

CDK1/cyclin B = target: T2, CDK1/cyclin B (Homo sapiens, UniProt P06493); assay: CDK1/cyclin B kinase inhibition assay (histone H1, [γ-33P]ATP); format: biochemical; settings: for IC50: averaged from triplicates, 15 μM ATP
T2 construct: made in house; host or cells: Sf9 insect cells (baculovirus co-infection)
T2 sequence (P06493 whole entry): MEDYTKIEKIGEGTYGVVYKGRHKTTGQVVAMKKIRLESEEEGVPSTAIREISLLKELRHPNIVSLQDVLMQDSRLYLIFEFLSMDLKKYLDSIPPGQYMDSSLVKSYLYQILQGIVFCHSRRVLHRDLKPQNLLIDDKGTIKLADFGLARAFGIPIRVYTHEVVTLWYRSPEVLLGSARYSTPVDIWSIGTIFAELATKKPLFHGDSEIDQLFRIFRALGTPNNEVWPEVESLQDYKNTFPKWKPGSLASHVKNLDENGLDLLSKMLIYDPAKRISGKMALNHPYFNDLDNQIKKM
T2 sequence (P14635 whole entry partner): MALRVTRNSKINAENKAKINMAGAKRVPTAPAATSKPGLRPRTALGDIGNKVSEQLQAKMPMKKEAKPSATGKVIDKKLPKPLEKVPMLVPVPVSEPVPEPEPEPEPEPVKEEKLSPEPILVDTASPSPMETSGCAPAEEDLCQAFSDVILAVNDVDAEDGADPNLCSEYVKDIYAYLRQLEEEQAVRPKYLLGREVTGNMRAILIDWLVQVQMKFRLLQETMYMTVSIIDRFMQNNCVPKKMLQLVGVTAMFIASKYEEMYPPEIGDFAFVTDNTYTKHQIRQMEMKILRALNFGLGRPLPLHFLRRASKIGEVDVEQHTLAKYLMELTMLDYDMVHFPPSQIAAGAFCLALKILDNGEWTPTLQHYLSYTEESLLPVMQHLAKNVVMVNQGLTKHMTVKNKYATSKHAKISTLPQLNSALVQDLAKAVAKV
Description: as §1

MAPK1 [2] = assay: Kinase selectivity panel; format: biochemical, human; settings: in the presence of 10 μM compound
GSK3β = GSK3β (Homo sapiens, UniProt P49841); assay: Kinase selectivity panel; format: biochemical; settings: in the presence of 10 μM compound
Chain of GSK3β (P49841 whole entry): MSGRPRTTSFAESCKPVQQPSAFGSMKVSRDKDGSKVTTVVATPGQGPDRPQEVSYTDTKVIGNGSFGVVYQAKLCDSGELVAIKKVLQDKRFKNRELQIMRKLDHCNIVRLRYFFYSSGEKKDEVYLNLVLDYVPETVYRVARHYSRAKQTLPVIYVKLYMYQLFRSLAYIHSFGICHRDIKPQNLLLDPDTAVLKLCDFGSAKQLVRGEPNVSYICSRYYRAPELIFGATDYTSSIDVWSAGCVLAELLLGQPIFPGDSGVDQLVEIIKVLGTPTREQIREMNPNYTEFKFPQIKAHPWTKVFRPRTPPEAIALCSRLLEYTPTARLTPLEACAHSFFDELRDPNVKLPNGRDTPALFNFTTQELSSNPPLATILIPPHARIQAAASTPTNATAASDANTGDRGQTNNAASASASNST

CDK7/cyclin H = CDK7/cyclin H (Homo sapiens, UniProt P50613); assay: Kinase selectivity panel; format: biochemical; settings: in the presence of 10 μM compound
Chain of CDK7/cyclin H (P50613 whole entry): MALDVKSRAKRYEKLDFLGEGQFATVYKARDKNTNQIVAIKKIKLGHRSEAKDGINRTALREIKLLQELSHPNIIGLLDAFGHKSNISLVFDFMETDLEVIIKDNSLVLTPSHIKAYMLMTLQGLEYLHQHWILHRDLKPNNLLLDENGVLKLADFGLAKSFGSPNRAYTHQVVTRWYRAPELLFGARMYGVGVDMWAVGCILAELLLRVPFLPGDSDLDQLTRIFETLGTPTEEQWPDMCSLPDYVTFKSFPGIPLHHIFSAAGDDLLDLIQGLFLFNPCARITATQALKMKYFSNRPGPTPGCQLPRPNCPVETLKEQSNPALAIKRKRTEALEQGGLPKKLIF
Chain of CDK7/cyclin H (P51946 whole entry partner): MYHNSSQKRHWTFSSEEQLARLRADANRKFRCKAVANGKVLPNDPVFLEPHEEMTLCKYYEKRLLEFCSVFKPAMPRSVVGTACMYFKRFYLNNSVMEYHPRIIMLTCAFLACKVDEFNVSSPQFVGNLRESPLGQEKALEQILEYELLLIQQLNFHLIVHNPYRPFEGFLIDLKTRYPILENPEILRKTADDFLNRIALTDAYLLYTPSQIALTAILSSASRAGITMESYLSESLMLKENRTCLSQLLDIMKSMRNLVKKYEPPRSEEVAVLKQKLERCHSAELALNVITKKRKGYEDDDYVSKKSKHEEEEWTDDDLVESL

[3] = In vitro cytotoxicity, Calcein AM, 72 h; format: cell-based, human; settings: human, at 100 μM
Description: (§2) Tested drugs were added to the cell cultures in six different concentration and kept at 37° C. and 5% CO2 for three days.
(§3) The cells, cultured in DMEM (supplemented with 10% fetal calf serum, 4 mM glutamine, 100 IU/ml penicillin, 100 μg/ml streptomycin) in a humidified CO2 incubator at 37° C., were redistributed into 96-well microtitre plates (10.000 cells per well). After 12 h preincubation, tested compounds in six-fold dilutions were added. Treatment of cells with the tested compounds (in the 1-100 μM range) lasted for 72 h.

CHK1 = CHK1 (Homo sapiens, UniProt O14757); assay: Kinase selectivity panel; format: biochemical; settings: in the presence of 10 μM compound
Chain of CHK1 (O14757 whole entry): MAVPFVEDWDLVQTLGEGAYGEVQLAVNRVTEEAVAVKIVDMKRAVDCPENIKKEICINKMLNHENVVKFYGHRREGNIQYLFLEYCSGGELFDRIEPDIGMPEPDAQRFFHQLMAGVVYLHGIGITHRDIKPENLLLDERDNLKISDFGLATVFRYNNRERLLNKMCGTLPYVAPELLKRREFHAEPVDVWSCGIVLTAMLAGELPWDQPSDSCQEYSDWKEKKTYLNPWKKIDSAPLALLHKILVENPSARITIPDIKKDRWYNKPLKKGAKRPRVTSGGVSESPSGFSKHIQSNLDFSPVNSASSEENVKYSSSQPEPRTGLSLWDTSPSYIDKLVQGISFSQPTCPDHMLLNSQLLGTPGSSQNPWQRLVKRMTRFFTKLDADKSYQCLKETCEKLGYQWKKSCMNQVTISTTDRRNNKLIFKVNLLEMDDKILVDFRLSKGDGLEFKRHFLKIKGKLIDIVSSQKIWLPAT

p70S6K = p70S6K (Homo sapiens, UniProt P23443); assay: Kinase selectivity panel; format: biochemical
Chain of p70S6K (P23443 whole entry): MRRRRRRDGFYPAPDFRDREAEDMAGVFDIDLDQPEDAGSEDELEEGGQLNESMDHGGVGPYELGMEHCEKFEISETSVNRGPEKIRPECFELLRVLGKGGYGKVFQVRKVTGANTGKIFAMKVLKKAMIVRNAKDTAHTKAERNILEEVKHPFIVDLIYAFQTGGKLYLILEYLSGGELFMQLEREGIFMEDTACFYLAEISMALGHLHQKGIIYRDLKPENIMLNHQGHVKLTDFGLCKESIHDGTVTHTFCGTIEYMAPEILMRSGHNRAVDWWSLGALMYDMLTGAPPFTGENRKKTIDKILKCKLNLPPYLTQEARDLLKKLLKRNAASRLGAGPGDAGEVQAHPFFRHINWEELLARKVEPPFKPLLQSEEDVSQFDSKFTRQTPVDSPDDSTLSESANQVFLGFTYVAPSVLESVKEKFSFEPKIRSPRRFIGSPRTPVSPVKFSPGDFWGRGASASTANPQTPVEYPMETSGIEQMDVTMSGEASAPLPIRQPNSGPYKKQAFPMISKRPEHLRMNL

PKA = PKA (Homo sapiens, UniProt P17612); settings: in the presence of 10 μM compound
[4] = tested on: HOS (human osteogenic sarcoma); assay: In vitro cytotoxicity, Calcein AM, 72 h; format: cell-based; settings: for IC50: Calcein AM, triplicates, read-out: IC50 (μM) HOS
Description: as §2, §3

[5] = tested on: MCF7 (human breast adenocarcinoma); assay: In vitro cytotoxicity, Calcein AM, 72 h; format: cell-based; settings: 72 h; for IC50: Calcein AM, triplicates, read-out: IC50 (μM) MCF7
Description: as §2, §3

[6] = tested on: K562 (human chronic myeloblastic leukemia); assay: In vitro cytotoxicity, Calcein AM, 72 h; format: cell-based; settings: 72 h; for IC50: Calcein AM, triplicates, read-out: IC50 (μM) K562
Description: as §2, §3

[7] = tested on: G 361 (human malignant melanoma); assay: In vitro cytotoxicity, Calcein AM, 72 h; format: cell-based; settings: 72 h; for IC50: Calcein AM, triplicates, read-out: IC50 (μM) G361
Description: as §2, §3

CDK1 and CDK2 = assay: CDK inhibition, for CDK1 and CDK2 together; format: biochemical
Description: as §1, with “After 20 min incubation, the reactions were stopped by the addition of 5 μl of a 3% H3PO4, aliquots were spotted on P-81 phosphocellulose (Whatman, USA) that was subsequently washed 3× with 5% H3PO4 and finally air dried. The measurements of kinase inhibition employed digital image analyzer BAS-1800 (Fujifilm, Japan).” left out

in vitro = format: cell-based; settings: human
Description: The following cell lines were used: HELA (human cervical carcinoma), MCF7 (human breast adenocarcinoma), NIH 3T3 (mouse fibroblasts), HOS (human osteogenic sarcoma), HL 60 (human promyelocytic leukemia), G 361 (human malignant melanoma), K562 (human chronic myeloblastic leukemia), CEM (human lymphoblastoid leukaemia). Tested drugs were added to the cell cultures in six different concentration and kept at 37° C. and 5% CO2 for three days.
as §3, with “h. At the end of this period, the cells were fed for 1 h with Calcein AM and the fluorescence of the live cells was measured at 485 nm/538 nm (ex/em) with a Fluoroskan Ascent (Labsystems, Finland).” for “h.”

MAPK1 [8] = settings: Knockaert et al 2000, Cohen 2003; cited from earlier work
CDK7 = CDK7 (Homo sapiens, UniProt P50613); settings: Knockaert et al 2000, Cohen 2003; cited from earlier work
Chain of CDK7 (P50613 whole entry, species assumed): as the sequence (P50613 whole entry) above
Chain of CDK7 (P51946 whole entry partner, species assumed): as the sequence (P51946 whole entry partner) above

[9] = in the presence of 10 μM compound
[10] = G 361 cells (human malignant melanoma), 72 h, read-out: % of viable cells G361
[11] = HOS cells (human osteogenic sarcoma), read-out: % of viable cells HOS
[12] = K562 cells (human chronic myeloblastic leukemia), 72 h, read-out: % of viable cells K562
[13] = MCF7 cells (human breast adenocarcinoma), 72 h, read-out: % of viable cells MCF7

Chain of PKBα (P31749 whole entry): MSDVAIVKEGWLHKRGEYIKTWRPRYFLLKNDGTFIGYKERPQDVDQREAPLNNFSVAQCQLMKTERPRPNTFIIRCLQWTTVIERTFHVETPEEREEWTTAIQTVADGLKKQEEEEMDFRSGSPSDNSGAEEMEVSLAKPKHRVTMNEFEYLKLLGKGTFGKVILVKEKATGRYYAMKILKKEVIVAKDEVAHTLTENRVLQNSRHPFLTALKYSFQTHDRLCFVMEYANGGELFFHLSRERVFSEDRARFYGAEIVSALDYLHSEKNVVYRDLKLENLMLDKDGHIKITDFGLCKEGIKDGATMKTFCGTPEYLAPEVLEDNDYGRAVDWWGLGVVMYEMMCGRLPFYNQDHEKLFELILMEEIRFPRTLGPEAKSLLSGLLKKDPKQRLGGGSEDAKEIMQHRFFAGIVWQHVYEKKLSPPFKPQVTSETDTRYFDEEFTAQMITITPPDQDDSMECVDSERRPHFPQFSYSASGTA

% of kinase activity (PKBα): 105% | % of kinase activity (CK2): 65% | % of kinase activity (c-Abl): 84% | % of kinase activity (SAPK2α): 82% | IC50 (CDK2/cyclin E): 3.5 µM | % of kinase activity (CDK2/cyclin E; [9]): 31% | IC50 (CDK1/cyclin B): 2.1 µM | % of kinase activity (CDK1/cyclin B; [9]): 19% | % of kinase activity (MAPK1 [2]): 99% | % of kinase activity (GSK3β): 81% | % of kinase activity (CDK7/cyclin H): 71% | % of kinase activity (CHK1): 89% | IC50 (p70S6K): ~10 µM | % of kinase activity (p70S6K; [9]): 51% | % of kinase activity (PKA): 67%
Compound: Nc1n[nH]c(N)c1N=Nc1ccc(O)cc1 [Compound 12b, 3,5-diamino-4-(4-hydroxy)phenylazo-pyrazole]
cell death by western blotting and flow cytometry (K562 cell line; 72 h treatment): significant cell death | cell cycle distribution (K562 cell line; K562, 50 μM, after 12 h incubation): accumulation of cell population in G1 | sub-G1 peak / fragmented DNA (K562 cell line; K562, longer incubation period (48-72 h)): sub-G1 peak of cell fragments, containing fragmented DNA | PARP cleavage fragment (western blot) [1]: revealed a 89 kDa peptide | viability at 72 h, 100 µM [3, 10]: 8.3% | viability at 72 h, 100 µM [3, 11]: 22% | viability at 72 h, 100 µM [3, 12]: 23% | viability at 72 h, 100 µM [3, 13]: 20%

IC50 (CDK2/cyclin E): 17 µM | IC50 (CDK1/cyclin B): 21 µM
Compound: Nc1n[nH]c(N)c1N=Nc1ccccc1CO [Compound 16b, 3,5-diamino-4-(2-hydroxymethyl)phenylazo-pyrazole]
IC50 ([4]; Homo sapiens): > 100 µM | IC50 ([5]; Homo sapiens, MCF7): > 100 µM | IC50 ([6]; Homo sapiens, K562): > 100 µM | viability at 72 h, 100 µM [3, 10]: 84% | viability at 72 h, 100 µM [3, 11]: 87% | viability at 72 h, 100 µM [3, 12]: 86% | viability at 72 h, 100 µM [3, 13]: 51% | IC50 ([7]; Homo sapiens, G-361): > 100 µM

IC50 (CDK2/cyclin E): > 100 µM | IC50 (CDK1/cyclin B): > 100 µM
Compound: NCc1ccc(/N=N/c2c(N)n[nH]c2N)cc1 [Compound 17b, 3,5-diamino-4-(4-aminomethyl)phenylazo-pyrazole]
CDK inhibitory activity (in words) (CDK1 and CDK2): low activity (almost zero)

Compound: Nc1n[nH]c(N)c1N=Nc1cccc2c1CCCC2 [Compound 30b]
IC50 (CDK2/cyclin E): > 100 µM | IC50 (CDK1/cyclin B): > 100 µM | IC50 [4]: 92 ± 5 µM | % of viable cells HOS ([4]; at 100 μM): (32 ± 6%) | IC50 [5]: 81 ± 9 µM | % of viable cells MCF7 ([5]; at 100 μM): (39 ± 10%) | IC50 [6]: 55 ± 1 µM | % of viable cells K562 ([6]; at 100 μM): (26 ± 7) % | IC50 [7]: 77 ± 4 µM | % of viable cells G361 ([7]; at 100 μM): (27 ± 5) % | CDK inhibitory activity (in words) (CDK1 and CDK2): only a weak impact on CDK activity

IC50 at 72 h (in vitro): > 100 µM
Compound: Cn1cnc2c(NCc3ccccc3)nc(NCCO)nc21 [olomoucine, reference compound]

Compound: CC[C@H](CO)Nc1nc(NCc2ccccc2)c2ncn(C(C)C)c2n1 [roscovitine]
effect on MAPK1 (in words) (MAPK1 [8]): strong effect | effect on CDK7 (in words) (CDK7): strong effect
